Assay [1] deals with MDA-MB-436 (BRCA1 mutant) cell line. The assay can be described thus: Viability assay in BRCA1 mutant cell line MDA-MB-436. It counts as cell-based. Conditions: BRCA1 mutant MDA-MB-436, read-out: MDA-MB-436 rel IC50. From the text:
(§1) Table 1 also indicates IC50 values in a viability assay for a non-isogenic pair of BRCA1 mutant (column 5—MDA-MB-436) and BRCA1 WT (column 6—HCC1954) cell lines. These values indicate the effect of treatment with compound on cell survival.

The subject of assay [2] is monoubiquitinated PCNA. The assay can be described thus: AlphaLISA assay measuring monoubiquitinated PCNA in MDA-MB-436. Conditions: Homo sapiens, read-out: Alpha LISA IC50. It counts as cell-based. From the text:
Table 1 also indicates IC50 values for exemplary compounds in an AlphaLISA assay measuring monoubiquitinated PCNA in a BRCA1 mutant cell line (MDA-MB-436; column 7).
(Bead proximity is the source of the signal in Alpha formats.)

Assay [3] addresses USP1-UAF1 (Homo sapiens, UniProt O94782). The assay can be described thus: Ubiquitin Rhodamine assay for USP1-UAF1 activity. It counts as biochemical. How it is done: Certain compounds of the disclosure were assessed for USP1-UAF1 activity in a Ubiquitin Rhodamine assay as described in Example 135.
Assay [4] concerns HCC1954 (BRCA1 WT) cell line. The assay can be described thus: Viability assay in BRCA1 WT cell line HCC1954. It counts as cell-based. Conditions: Homo sapiens, read-out: HCC 1954 IC50 rel IC50.
From the text: as §1

[5] abbreviates: Homo sapiens, MDA-MB-436, viability.

SMILES strings stand for the structures. Read-outs that look alike come from different tables or passages of the source.

Sequence of USP1-UAF1 (O94782 whole entry): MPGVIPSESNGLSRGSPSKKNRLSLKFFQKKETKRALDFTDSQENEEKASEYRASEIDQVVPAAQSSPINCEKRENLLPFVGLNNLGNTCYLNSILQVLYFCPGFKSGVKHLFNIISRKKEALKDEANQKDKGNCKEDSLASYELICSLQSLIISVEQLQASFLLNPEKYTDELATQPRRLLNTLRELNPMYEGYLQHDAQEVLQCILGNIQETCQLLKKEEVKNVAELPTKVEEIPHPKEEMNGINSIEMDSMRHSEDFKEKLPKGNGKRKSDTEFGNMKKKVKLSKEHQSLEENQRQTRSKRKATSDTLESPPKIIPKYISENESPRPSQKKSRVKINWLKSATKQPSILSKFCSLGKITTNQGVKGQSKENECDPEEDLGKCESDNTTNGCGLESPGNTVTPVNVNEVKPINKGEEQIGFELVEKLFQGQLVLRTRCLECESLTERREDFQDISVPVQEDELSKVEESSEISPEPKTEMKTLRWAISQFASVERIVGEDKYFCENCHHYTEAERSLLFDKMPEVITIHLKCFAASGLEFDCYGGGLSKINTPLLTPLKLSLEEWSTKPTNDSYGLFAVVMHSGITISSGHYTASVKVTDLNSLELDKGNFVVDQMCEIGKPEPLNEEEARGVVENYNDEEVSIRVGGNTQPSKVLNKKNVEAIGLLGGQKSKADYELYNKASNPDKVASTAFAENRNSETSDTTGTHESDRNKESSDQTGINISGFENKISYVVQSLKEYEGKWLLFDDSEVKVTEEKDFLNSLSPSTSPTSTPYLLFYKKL
Sequence of USP1-UAF1 (Q8TAF3 whole entry partner): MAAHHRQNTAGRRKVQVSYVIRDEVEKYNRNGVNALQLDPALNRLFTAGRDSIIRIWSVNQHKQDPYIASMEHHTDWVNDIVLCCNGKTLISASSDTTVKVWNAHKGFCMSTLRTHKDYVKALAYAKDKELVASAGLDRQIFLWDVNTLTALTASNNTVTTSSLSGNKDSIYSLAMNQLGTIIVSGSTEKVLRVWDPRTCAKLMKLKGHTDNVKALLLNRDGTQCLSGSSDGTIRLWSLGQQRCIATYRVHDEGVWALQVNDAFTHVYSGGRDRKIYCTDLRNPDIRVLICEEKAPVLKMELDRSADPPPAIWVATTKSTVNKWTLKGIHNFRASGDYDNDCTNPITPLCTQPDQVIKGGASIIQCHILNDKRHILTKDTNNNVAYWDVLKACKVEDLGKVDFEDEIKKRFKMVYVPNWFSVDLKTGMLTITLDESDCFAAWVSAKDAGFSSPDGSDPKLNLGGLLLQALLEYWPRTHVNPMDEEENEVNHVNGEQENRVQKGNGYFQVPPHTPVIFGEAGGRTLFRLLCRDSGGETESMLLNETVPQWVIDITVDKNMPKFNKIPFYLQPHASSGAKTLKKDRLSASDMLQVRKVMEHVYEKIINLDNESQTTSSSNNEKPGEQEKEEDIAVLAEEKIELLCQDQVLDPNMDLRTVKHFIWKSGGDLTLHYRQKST

With `Cn1cc(C(F)(F)F)nc1-c1ccc([C@@](C)(O)c2c[nH]c3cnc(-c4cccnc4OCC(F)(F)F)nc23)cc1` (single isomer, unassigned) [Compound 74], the IC50 (as a rule, the point on the concentration scale where inhibition reaches its midpoint) in assay [1] (setting [5]) is 250 to 10000 nM; in assay [2] it was 100 to 250 nM; in assay [3] it was < 30 nM; in assay [4], 250 to 10000 nM.

As for `Cn1cc(C(F)(F)F)nc1-c1ccc(Cc2c[nH]c3cnc(-c4cccnc4OC4CC4)nc23)cc1` [Compound 41, 2-cyclopropoxy-3-[7-([4-[1-methyl-4-(trifluoromethyl)imidazol-2-yl]phenyl]methyl)-5H-pyrrolo[3,2-d]pyrimidin-2-yl]pyridine], the IC50 in assay [1] (setting [5]) was 100 to 250 nM; in assay [2], < 100 nM; in assay [3] it was 30 to 100 nM; in assay [4], ≥ 10000 nM.

For `COc1ncnc(C2CC2)c1-c1ncc2c(n1)c(Sc1ccc(-c3nc(C(F)(F)F)cn3C)cc1)cn2C` [Compound 166], the IC50 in assay [1] (setting [5]) is 100 to 250 nM; in assay [2] it was 250 to 10000 nM; in assay [3], 100 to 10000 nM; in assay [4], ≥ 10000 nM.

For `CC(C)c1ccccc1-c1cc2c(CN3CCN(c4nc(C(F)(F)F)cn4C)CC3)c[nH]c2cn1` [Compound 71], the IC50 in assay [1] (setting [5]) fell in the range of 250 to 10000 nM; in assay [2] it was 250 to 10000 nM; in assay [3], 100 to 10000 nM; in assay [4], 250 to 10000 nM.

For the molecule `COc1nccc(C)c1-c1ncc2[nH]nc(Cc3ccc(-c4nc(C(F)(F)F)cn4C)cc3)c2n1` [Compound 191], the IC50 in assay [1] (setting [5]) is 100 to 250 nM; in assay [2] it was 250 to 10000 nM; in assay [3], 100 to 10000 nM; in assay [4] it was ≥ 10000 nM.

Consider `Cn1cc(C(F)(F)F)nc1-c1ccc(Sc2c[nH]c3cnc(-c4ccccc4C(F)(F)F)nc23)cc1` [Compound 84, 7-[4-[1-methyl-4-(trifluoromethyl)imidazol-2-yl]phenyl]sulfanyl-2-[2-(trifluoromethyl)phenyl]-5H-pyrrolo[3,2-d]pyrimidine], for which the 50% inhibitory concentration (IC50) in assay [1] (setting [5]) is 250 to 10000 nM; in assay [2] it was 250 to 10000 nM; in assay [3], 100 to 10000 nM; in assay [4] it was ≥ 10000 nM.

Consider `COc1ncnc(C2CC2)c1-c1ncc2nn(C)c(Cc3ccc(-c4nc(C(F)(F)F)cn4C)cc3)c2n1` [Compound 24, 5-(4-cyclopropyl-6-methoxy-pyrimidin-5-yl)-2-methyl-3-[[4-[1-methyl-4-(trifluoromethyl)imidazol-2-yl]phenyl]methyl]pyrazolo[4,3-d]pyrimidine], for which the figures for the 50% inhibitory concentration (IC50) in assay [1] (setting [5]), in assay [2] and in assay [4] were 250 to 10000 nM, 100 to 250 nM and ≥ 10000 nM, respectively.

In the case of `Cn1cc(C(F)(F)F)nc1-c1ccc(Cc2c[nH]c3cnc(-c4c(Cl)ccnc4C4CC4)nc23)cc1` [Compound 150, 2-(4-chloro-2-cyclopropylpyridin-3-yl)-7-(4-(1-methyl-4-(trifluoromethyl)-1H-imidazol-2-yl)benzyl)-5H-pyrrolo[3,2-d]pyrimidine], the IC50 was < 100 nM in assay [1] (setting [5]), < 100 nM in assay [2], < 30 nM in assay [3] and 250 to 10000 nM in assay [4].

Regarding `COc1ncnc(C2CC2)c1-c1ncc2[nH]nc(Cc3cc(F)c(-n4nc(C(F)(F)F)cc4C)c(F)c3)c2n1` [Compound 129], the 50% inhibitory concentration (IC50) in assay [1] (setting [5]) was 100 to 250 nM; in assay [2], 100 to 250 nM; in assay [3], < 30 nM; in assay [4] it was 250 to 10000 nM.

Consider `COc1ncnc(C(C)C)c1-c1ncc2[nH]cc(Cc3ccc(-c4nc(C(F)(F)F)cn4C)cc3)c2n1` [Compound 105, 2-(4-isopropyl-6-methoxy-pyrimidin-5-yl)-7-[[4-[1-methyl-4-(trifluoromethyl)imidazol-2-yl]phenyl]methyl]-5H-pyrrolo[3,2-d]pyrimidine], for which the IC50 was < 100 nM in assay [1] (setting [5]), < 100 nM in assay [2], < 30 nM in assay [3] and ≥ 10000 nM in assay [4].

For the molecule `COc1ncnc(C2CC2)c1-c1ncc2nn(C(C)C)c(Cc3ccc(-c4nc(C(F)(F)F)cn4C)cc3)c2n1` (single isomer, unassigned) [Compound 104, 5-(4-cyclopropyl-6-methoxy-pyrimidin-5-yl)-2-isopropyl-3-[[4-[1-methyl-4-(trifluoromethyl)imidazol-2-yl]phenyl]methyl]pyrazolo[4,3-d]pyrimidine], the IC50 in assay [1] (setting [5]) was 100 to 250 nM; in assay [2] it was 100 to 250 nM; in assay [3], 100 to 10000 nM; in assay [4], ≥ 10000 nM.

`CC(C)c1ccccc1-c1ncc2[nH]nc(Cc3ccc(-c4nc(C(F)(F)F)cn4C)cc3)c2n1` [Compound 27, 5-(2-isopropylphenyl)-3-[[4-[1-methyl-4-(trifluoromethyl)imidazol-2-yl]phenyl]methyl]-1H-pyrazolo[4,3-d]pyrimidine]: the IC50 in assay [1] (setting [5]) is < 100 nM; in assay [2] it was < 100 nM; in assay [3], < 30 nM; in assay [4], ≥ 10000 nM.

Consider `CCn1cc(C(F)(F)F)nc1-c1ccc(C(O)c2c[nH]c3cnc(-c4c(OC)ncnc4C4CC4)nc23)cc1` (stereo not drawn) [Compound 33], for which the concentration for half-maximal inhibition (IC50) in assay [1] (setting [5]) was 250 to 10000 nM; in assay [2] it was 250 to 10000 nM; in assay [3] it was 100 to 10000 nM; in assay [4], ≥ 10000 nM.

`COc1ncnc(C2CC2)c1-c1ncc2[nH]cc(Oc3ccc(-c4nc(C(F)(F)F)cn4C)cc3)c2n1` [Compound 69, 2-(4-cyclopropyl-6-methoxy-pyrimidin-5-yl)-7-[4-[1-methyl-4-(trifluoromethyl)imidazol-2-yl]phenoxy]-5H-pyrrolo[3,2-d]pyrimidine]: the IC50 was 250 to 10000 nM in assay [1] (setting [5]), 250 to 10000 nM in assay [2], 100 to 10000 nM in assay [3] and ≥ 10000 nM in assay [4].

Consider `COc1ncnc(C2CC2)c1-c1ncc2[nH]cc(Cc3ccc(-c4nc(C(F)(F)F)cn4C)cc3)c2n1` [Compound 65, 2-(4-cyclopropyl-6-methoxy-pyrimidin-5-yl)-7-[[4-[1-methyl-4-(trifluoromethyl)imidazol-2-yl]phenyl]methyl]-5H-pyrrolo[3,2-d]pyrimidine], for which the IC50 is < 100 nM in assay [1] (setting [5]), < 100 nM in assay [2], < 30 nM in assay [3] and ≥ 10000 nM in assay [4].

Take `Cn1cc(C(F)(F)F)nc1-c1ccc(Cc2n[nH]c3cnc(-c4c(C5CC5)ncnc4C4CC4)nc23)cc1` [Compound 183, 5-(4,6-dicyclopropylpyrimidin-5-yl)-3-[[4-[1-methyl-4-(trifluoromethyl)imidazol-2-yl]phenyl]methyl]-1H-pyrazolo[4,3-d]pyrimidine]: the IC50 in assay [1] (setting [5]) was < 100 nM; in assay [2], < 100 nM; in assay [3] it was < 30 nM; in assay [4] it was ≥ 10000 nM.

Take `Cn1cc(C(F)(F)F)nc1-c1ccc(Cc2c[nH]c3cnc(-c4cccnc4C4CC4)nc23)cc1` [Compound 60, 2-(2-cyclopropyl-3-pyridyl)-7-[[4-[1-methyl-4-(trifluoromethyl)imidazol-2-yl]phenyl]methyl]-5H-pyrrolo[3,2-d]pyrimidine]: the IC50 in assay [1] (setting [5]) is < 100 nM; in assay [2], < 100 nM; in assay [3], < 30 nM; in assay [4], ≥ 10000 nM.

On to `COc1ncnc(C2CC2)c1-c1ncc2[nH]nc(Cc3ccc(-n4nc(C(F)(F)F)cc4OC)cc3)c2n1` [Compound 140, 5-(4-cyclopropyl-6-methoxy-pyrimidin-5-yl)-3-[[4-[5-methoxy-3-(trifluoromethyl)pyrazol-1-yl]phenyl]methyl]-1H-pyrazolo[4,3-d]pyrimidine], for which the IC50 in assay [1] (setting [5]) is < 100 nM; in assay [2], 100 to 250 nM; in assay [3], < 30 nM; in assay [4] it was 250 to 10000 nM.

Take `COc1ncnc(C2CC2)c1-c1cc2c(Cc3ccc(-c4nc(C(F)(F)F)cn4C)cc3)c[nH]c2cn1` [Compound 23, 5-(4-cyclopropyl-6-methoxy-pyrimidin-5-yl)-3-[[4-[1-methyl-4-(trifluoromethyl)imidazol-2-yl]phenyl]methyl]-1H-pyrrolo[2,3-c]pyridine]: the half-inhibitory concentration (IC50) in assay [1] (setting [5]) is < 100 nM; in assay [2] it was < 100 nM; in assay [3], < 30 nM; in assay [4], 250 to 10000 nM.

Regarding `COc1ncnc(C2CC2)c1-c1ncc2[nH]nc(Cc3ccc(-c4nc(C(F)(F)F)cn4C)cc3)c2n1` [Compound 5, 5-(4-cyclopropyl-6-methoxy-pyrimidin-5-yl)-3-[[4-[1-methyl-4-(trifluoromethyl)imidazol-2-yl]phenyl]methyl]-1H-pyrazolo[4,3-d]pyrimidine], the IC50 was < 100 nM in assay [1] (setting [5]), < 100 nM in assay [2] and < 30 nM in assay [3].

Take `Cn1cc(C(F)(F)F)nc1-c1ccc(Cc2c[nH]c3cnc(-c4c(C(F)(F)F)cnn4C)nc23)cc1` [Compound 179, 7-[[4-[1-methyl-4-(trifluoromethyl)imidazol-2-yl]phenyl]methyl]-2-[2-methyl-4-(trifluoromethyl)pyrazol-3-yl]-5H-pyrrolo[3,2-d]pyrimidine]: the half-maximal inhibitory concentration (IC50) was < 100 nM in assay [1] (setting [5]), < 100 nM in assay [2] and 250 to 10000 nM in assay [4].

Regarding `COc1ncnc(C2CC2)c1-c1ncc2[nH]cc([C@@](C)(O)c3ccc(-c4nc(C(F)(F)F)cn4C)cc3)c2n1` (single isomer, unassigned) [Compound 76], the half-inhibitory concentration (IC50) was in the range of 250 to 10000 nM in assay [1] (viability), 100 to 250 nM in assay [2] and 100 to 10000 nM in assay [3].

Turning to `COc1ncnc(C2CC2)c1-c1ncc2c(n1)c(Cc1ccc(-c3nc(C(F)(F)F)cn3C)cc1)nn2C` [Compound 26, 5-(4-cyclopropyl-6-methoxy-pyrimidin-5-yl)-1-methyl-3-[[4-[1-methyl-4-(trifluoromethyl)imidazol-2-yl]phenyl]methyl]pyrazolo[4,3-d]pyrimidine], the IC50 in assay [1] (setting [5]) was < 100 nM; in assay [2], < 100 nM; in assay [4], ≥ 10000 nM.

The values are drawn from patent US20240182481A1 (Tango Therapeutics, Inc., priority 2021, published 2024).
